Results taken from PMC8802806, “Synthesis and Antitumor Activity of Erlotinib Derivatives Linked With 1,2,3-Triazole” (Frontiers in Pharmacology, 2022).
Values joined by “and” are separate entries in the source; they are usually repeats but may differ in a detail not shown here. Equal entries are not always repeated. Where two headings read alike, the source gives them in different places.

Experiments:
[1] = test system: HeLa cells; settings: cited from earlier work
[2] = test system: HeLa cells; assay: Flow cytometry detection for cell apoptosis (Annexin V/PI); format: cell-based, human; settings: single samples; for Q3: FITC-A+ , PE-A- Freq. of Parent / Q2: FITC-A+ , PE-A+ Freq. of Parent: 72 h, Annexin V/PI
Procedure: Cell-apoptosis analysis was carried out by flow cytometry using the Annexin V/PI apoptosis kit (Solarbio, China) according to the manufacturer’s manual. Briefly, HeLa (5 × 10^4/well) cells were seeded in 12-well plates for 24 h and then treated with 0.1% DMSO (as control) or various concentrations of compounds 4d, 4k, and 4l for 72 h, respectively. Cells were harvested, washed with PBS, and then incubated with 100 μl of 1 × Annexin V binding buffer containing 1 μl FITC Annexin V for 10 min at RT in the dark. Cells were incubated for another 5 min at room temperature (RT) in the dark after 1 μl PI was added. PBS (200 µl) was added to each tube for flow cytometry analysis (BriCyte E6). The percentages of apoptotic cells were analyzed using FlowJo soft.

[3] = test system: HeLa cells; assay: Cell antiproliferative activity assay (CCK8); format: cell-based, human; settings: Homo sapiens; for IC50: HeLa; for inhibition at 0.25 µM: 250 nM; for inhibition at 0.5 µM: 500 nM; for inhibition at 1 µM: 1000 nM; for inhibition at 2 µM: 2000 nM; for inhibition at 4 µM: 4000 nM; for inhibition at 8 µM: 8000 nM; for inhibition at 16 µM: 16000 nM
Procedure: Cell antiproliferative activity was evaluated by the Cell Counting Kit-8 (CCK8, DOJINDO, Japan) assay. The cells were seeded at a density of 2,000 cells per well into 96-well microplate in 100 μl of growth medium. Cells were incubated at 37°C and 5% CO2 overnight. The next day, 100 μl per well of diluted inhibitor in growth medium was added with the final concentration from 0.1 nM to 100 μM. The cells were treated with DMSO as control. A series of dilutions are made in 0.1% DMSO in assay medium so that the final concentration of DMSO is 0.1% in all of treatments. Cells were incubated at 37°C and 5% CO2 for 48 h. Then, 10 μl of CCK8 was added to each well. The plates were incubated at 37°C for 2 h; after that, the plates were recorded by measuring absorbance at 450 nm with the reference wavelength of 630 nm using an EnVision Multilabel Reader (PerkinElmer). The IC50 values were calculated using GraphPad Prism 6.0 software and determined by the concentration causing a half-maximal percent activity. All assays were conducted with three parallel samples and three repetitions.

[4] = chromenocarbazole tethered 1,2,3-triazoles, ref Chavan et al., 2019, read-out: IC50 antiproliferative activity in HeLa cells
[5] = amidino 2-substituted benzimidazoles linked to 1,2,3-triazoles, ref Raic-Malic et al., read-out: IC50 antiproliferation activities against HeLa cells
[6] = 48 h, HeLa cells, CCK8, 48 h, mean ± SD, n = 3, read-out: IC50 (μM) HeLa
[7] = HELA 2000cells/well, supplement DataSheet2, Repeat1, read-out: IC50 Repeat1
[8] = HELA 2000cells/well, supplement DataSheet2, Repeat 2, read-out: IC50 Repeat 2
[9] = HELA 2000cells/well, supplement DataSheet2, mean of two repeats ± SD, read-out: IC50 mean±SD
[10] = HELA 2000cells/well, Repeat1, read-out: Inhibition (%) Repeat1
[11] = HELA 2000cells/well, Repeat2, read-out: Inhibition (%) Repeat2

SMILES: N#CC1=C(N)Oc2c(ccc3[nH]c4ccccc4c23)C12C(=O)N(Cc1cn(Cc3ccc(Cl)cc3)nn1)c1ccc(Br)cc12 (stereo not shown) [6s]
- IC50 [1, 4]: 3.83 µM

SMILES: c1ccc(Cn2cc(COc3ccc(-c4nc5cc(C6=NCCN6)ccc5[nH]4)cc3)nn2)cc1 [11f]
- IC50 [1, 5]: 6.63 µM

SMILES: Cc1ccc(Cn2cc(CN3C(=O)C4(C(C#N)=C(N)Oc5c4ccc4[nH]c6ccccc6c54)c4ccccc43)nn2)cc1 (stereo not shown) [6b]
- IC50 [1, 4]: 4.05 µM

SMILES: N#CC1=C(N)Oc2c(ccc3[nH]c4ccccc4c23)C12C(=O)N(Cc1cn(Cc3ccc(C(F)(F)F)cc3)nn1)c1ccccc12 (stereo not shown) [6g]
- IC50 [1, 4]: 3.54 µM

SMILES: COc1ccc2c(-n3cc(-c4cc(OC)c(OC)c(OC)c4)nn3)c(C(=O)Nc3ccccc3)oc2c1 [17 g, 6-methoxy-N-phenyl-3-[4-(3,4,5-trimethoxyphenyl)-1H-1,2,3-triazol-1-yl] benzofuran-2 carboxamide]
- IC50 ([1]; ref Qi et al., 2020, read-out: IC50 antiproliferative activities against HeLa cells): 0.73 ± 0.67 µM

SMILES: CCOc1cccc(-n2cc(-c3cccc(Nc4ncnc5cc(OCCOC)c(OCCOC)cc45)c3)nn2)c1 [Compound 4n, [6,7-Bis-(2-methoxy-ethoxy)-quinazolin-4-yl]-{3-[1-(3-ethoxy-phenyl)-1H-[1,2,3]triazol-4-yl]-phenyl}-amine]
- Q3: FITC-A+ , PE-A- Freq. of Parent ([2]; 3 μM): 0.75% and 1.15% and 1.24%
- Q2: FITC-A+ , PE-A+ Freq. of Parent ([2]; 6 μM): 21.9%
- Q3: FITC-A+ , PE-A- Freq. of Parent ([2]; 6 μM): 5.30% and 1.36% and 0.76%
- Q2+Q3 (as fraction) ([2]; 6 μM): 0.272 and 0.3116 and 0.2626
- Q2: FITC-A+ , PE-A+ Freq. of Parent ([2]; 12 μM): 61.9%
- Q3: FITC-A+ , PE-A- Freq. of Parent ([2]; 12 μM): 2.53% and 1.19% and 1.05%
- Q2+Q3 (as fraction) ([2]; 12 μM): 0.6443 and 0.5879 and 0.6565
- melting point: 110 to 114 °C
- IC50 [3, 6]: 8.21 ± 1.05 µM
- IC50 [3, 7]: 7.21 µM
- IC50 [3, 8]: 9.31 µM
- IC50 [3, 9]: 8.21 ± 1.05 µM
- inhibition at 0.25 µM [3, 10]: 0%
- inhibition at 0.25 µM [3, 11]: 2.69%
- inhibition at 0.5 µM [3, 10]: 4.33%
- inhibition at 0.5 µM [3, 11]: 4.33%
- inhibition at 1 µM [3, 10]: 7.26%
- inhibition at 1 µM [3, 11]: 6.45%
- inhibition at 2 µM [3, 10]: 12.8%
- inhibition at 2 µM [3, 11]: 10.8%
- inhibition at 4 µM [3, 10]: 31.2%
- inhibition at 4 µM [3, 11]: 18.5%
- inhibition at 8 µM [3, 10]: 51.9%
- inhibition at 8 µM [3, 11]: 45.5%
- inhibition at 16 µM [3, 10]: 77.1%
- inhibition at 16 µM [3, 11]: 69.6%

SMILES: COCCOc1cc2ncnc(Nc3cccc(-c4cn(-c5cccc([N+](=O)[O-])c5)nn4)c3)c2cc1OCCOC [Compound 4m, [6,7-Bis-(2-methoxy-ethoxy)-quinazolin-4-yl]-{3-[1-(3-nitro-phenyl)-1H-[1,2,3]triazol-4-yl]-phenyl}-amine]
- melting point: 98 to 101 °C
- IC50 [3, 6]: 3.79 ± 0.1 µM
- IC50 [3, 7]: 3.89 µM
- IC50 [3, 8]: 3.69 µM
- IC50 [3, 9]: 3.79 ± 0.103 µM
- inhibition at 0.25 µM [3, 10]: 0%
- inhibition at 0.25 µM [3, 11]: 7.86%
- inhibition at 0.5 µM [3, 10]: 3.48%
- inhibition at 0.5 µM [3, 11]: 5.51%
- inhibition at 1 µM [3, 10]: 8.91%
- inhibition at 1 µM [3, 11]: 15.1%
- inhibition at 2 µM [3, 10]: 42.2%
- inhibition at 2 µM [3, 11]: 42.1%
- inhibition at 4 µM [3, 10]: 54.2%
- inhibition at 4 µM [3, 11]: 56.2%
- inhibition at 8 µM [3, 10]: 67.5%
- inhibition at 8 µM [3, 11]: 66.5%
- inhibition at 16 µM [3, 10]: 77.1%
- inhibition at 16 µM [3, 11]: 77.2%

SMILES: CC(C)NC(=N)c1ccc2[nH]c(-c3ccc(OCc4cn(Cc5ccc(Cl)cc5)nn4)cc3)nc2c1 [10c]
- IC50 [1, 5]: 17.5 µM

SMILES: Cc1ccc(Cn2cc(CN3C(=O)C4(C(C#N)=C(N)Oc5c4ccc4[nH]c6ccccc6c54)c4cc(F)ccc43)nn2)cc1 (stereo not shown) [6u]
- IC50 [1, 4]: 3.35 µM
